The results in this text go back to patent US8709406B2, “Prevention and treatment of oxidative stress disorders by gluthathione and phase II detoxification enzymes” (Brassica Foundation for ChemoProtection Research, priority 2001, dated 2014).

Experiment [1] has as its system glucose 6-phosphate dehydrogenase. The following applies: ARPE-19; sulforaphane 0.625 and 2.5 μM 24 h, then medium without inducer. On the procedure:
(§1) Cells were lysed by addition of a digitonin solution (0.8 mg/ml digitonin in 2 mM EDTA, pH 7.8), incubated at 37° C. for 20 min, gently shaken for 20 min at 25° C., and centrifuged at 1,500×g for 20 min at 4° C.
(§2) All measurements were made in 96-well microtiter plates at 25° C., and reaction rates were monitored with a microtiter plate reader. The QR activities of supernatant fractions were determined by procedures developed in our laboratory (Fahey, J. W., Zhang, Y. & Talalay, P. (1997) Proc. Natl. Acad. Sci. USA 94, 10367-10372; Prochaska, H. J., Santamaria, A. B. & Talalay, P. (1992) Proc. Natl. Acad. Sci. USA 89, 2394-2398.). Specific activities were obtained by relating the reaction rates to protein concentrations determined with the bicinchoninic acid reagent (Smith, P. K., Krohn, R. I., Hermanson, G. T., Mallia, A. K., Gratner, F. H., Provenzano, M. D., Fujimoto, E. K., Goeke, N. M., Olson, B. J. & Klenk, D. C. (1985) Anal. Biochem. 150, 76-85). […] Glutathione reductase activity was assayed by mixing 50 μl of cell lysate with 25 μl of 1 mM NADPH, 25 μl of GSSG (20 mg/ml), and 150 μl of 50 mM sodium phosphate, pH 7.5. Initial reaction rates were obtained at 340 nm (Carlberg, I. & Mannervik, B. (1985) Methods Enzymol. 113, 484-490).

Experiment [2] relates to glutathione reductase. The following applies: ARPE-19; sulforaphane 0.625 and 2.5 μM 24 h, then medium without inducer. On the procedure: as §1, §2
Experiment [3] relates to quinone reductase. The note with it: ARPE-19. As for the experimental part:
as §1, §2

Experiment [4] has as its system glutathione. The following applies: ARPE-19. As for the experimental part: as §1
Total glutathione (oxidized and reduced) was determined by reduction of 5,5′-dithiobis-2-nitrobenzoic acid (DTNB) in a glutathione reductase-coupled assay in 96-well microliter plates (Ritchie, J. P., Jr., Skowronski, L., Abraham, P. & Leutzinger, Y. (1996) Clin. Chem. 42, 64-70). Briefly, 30 μl of lysates were mixed with 60 μl of cold 2.5% metaphosphoric acid, stored at 4° C. for 10 min, and centrifuged for 20 min at 1,500×g at 4° C. […] After 5 min incubation at 25° C., 50 μl of 0.72 mM NADPH were added to each well, and the initial reaction rates were determined at 412 nm. Calibration curves for pure GSH were included in each assay.

In the case of `C[S+]([O-])CCCCN=C=S` (stereo not drawn) [Sulforaphane], the “specific activity of glucose 6-phosphate dehydrogenase after removal of sulforaphane” value in experiment [1] is on record as “continued to rise for 48 h after removal of sulforaphane”. In addition, the “specific activity of glutathione reductase after removal of sulforaphane” value in experiment [2] is reported as “continued to rise for 48 h after removal of sulforaphane”. Moreover, the “specific activities of QR in cytosols” value in experiment [3] (sulforaphane 0-5.0 μM 24 h) was “rose with exposure to increasing concentrations of sulforaphane”. Further, the “specific activity of QR after removal of sulforaphane” value in experiment [3] (sulforaphane 0.625 and 2.5 μM 24 h, then medium without inducer) is “continued to rise for 48 h after removal of sulforaphane”. Further, the “concentrations of GSH in cytosols” value in experiment [4] (sulforaphane 0-5.0 μM 24 h) is “rose with exposure to increasing concentrations of sulforaphane”. Moreover, in experiment [4] (sulforaphane 2.5 μM 24 h), the “increase of GSH levels” value is on record as “about 50%”.
